In article PMC8900659 (Nature chemical biology, 2021):

What was measured:
ABHD17s = assay: in vitro MS-ABPP, OCI-AML3 proteome; format: biochemical, human; conditions: 1 and 10 μM, 30 min, particulate fraction
LYPLA1 = LYPLA1 (Homo sapiens, UniProt O75608); assay: in vitro MS-ABPP, OCI-AML3 proteome; format: biochemical; conditions: 1 and 10 μM, 30 min, particulate fraction
LYPLA2 = LYPLA2 (Homo sapiens, UniProt O95372); assay: in vitro MS-ABPP, OCI-AML3 proteome; format: biochemical; conditions: 1 and 10 μM, 30 min, particulate fraction
LYPLA2, sequence (O95372 whole entry): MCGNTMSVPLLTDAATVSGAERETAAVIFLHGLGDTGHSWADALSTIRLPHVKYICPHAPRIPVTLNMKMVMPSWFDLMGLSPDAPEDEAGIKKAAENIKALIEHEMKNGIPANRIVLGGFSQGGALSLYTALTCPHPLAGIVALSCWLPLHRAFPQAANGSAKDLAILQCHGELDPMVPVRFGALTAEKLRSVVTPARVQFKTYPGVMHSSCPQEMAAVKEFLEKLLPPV

ABHD17A/B/C = assay: targeted MS-ABPP in situ time-course in ONK cells; format: cell-based, human; conditions: 1 μM
ABHD10 = target: T1, ABHD10 (Homo sapiens, UniProt Q9NUJ1); assay: in vitro MS-ABPP, OCI-AML3 proteome; format: biochemical; conditions: 1 and 10 μM, 30 min, particulate fraction
T1 sequence (Q9NUJ1 53-306): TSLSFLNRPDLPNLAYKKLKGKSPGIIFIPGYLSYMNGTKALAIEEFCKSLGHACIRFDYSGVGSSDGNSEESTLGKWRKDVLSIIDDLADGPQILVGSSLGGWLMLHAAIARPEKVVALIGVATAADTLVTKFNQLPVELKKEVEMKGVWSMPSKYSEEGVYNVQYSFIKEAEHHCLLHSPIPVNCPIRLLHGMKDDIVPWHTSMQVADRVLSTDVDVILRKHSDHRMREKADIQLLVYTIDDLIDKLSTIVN

[1] = tested on: NRAS mutant OCI-AML3 cells; assay: pERK Western blot; conditions: 4 h; Palm M 10 μM, ABD957 500 nM, PD901 10 nM
KRAS mutant NB-4 cells = assay: pERK Western blot; conditions: 4 h; Palm M 10 μM, ABD957 500 nM, PD901 10 nM
[2] = tested on: wild type N-Ras palmitoylation; assay: MS-based dynamic palmitoylation profiling in NB-4 cells; format: cell-based, human
ABHD17-DKO cells = assay: pERK Western blot; format: cell-based, human; conditions: OCI-AML3 ABHD17-DKO, 4 h
serine hydrolases = assay: in situ MS-ABPP in OCI-AML3 cells, global selectivity; conditions: in situ 2 h; ABD957 500 nM, Palm M 10 μM, HDFP 20 μM
[3] = tested on: dynamically palmitoylated proteins; assay: MS-based global dynamic palmitoylation profiling in OCI-AML3 cells; conditions: Palm M 10 μM, ABD957 500 nM, 1 h chase

LYPLA1, sequence (O75608 whole entry): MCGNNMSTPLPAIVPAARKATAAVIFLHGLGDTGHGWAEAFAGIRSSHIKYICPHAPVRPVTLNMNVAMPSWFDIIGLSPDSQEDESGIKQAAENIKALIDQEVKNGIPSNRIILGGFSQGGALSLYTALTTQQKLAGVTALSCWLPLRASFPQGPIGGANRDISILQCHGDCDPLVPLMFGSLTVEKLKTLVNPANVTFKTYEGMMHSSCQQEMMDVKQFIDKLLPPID

CN(C)S(=O)(=O)c1cnn(C(=O)N2CCN(Cc3ccc(Cl)cc3)CC2)c1 [compound 5]
inhibition of ABHD17s (ABHD17s): confirmed inhibition
inhibition of LYPLA1 (LYPLA1): inhibition
inhibition of LYPLA2 (LYPLA2): inhibition

C[C@H]1CN(Cc2ccc(C(F)(F)F)cc2N2CCOCC2)CCN1C(=O)n1ccc(S(=O)(=O)N(C)C)n1 [compound 8]
sustained inhibition of ABHD17A/B/C over 72 h (ABHD17A/B/C): did not produce sustained inhibition
ABHD10 as off-target (ABHD10): introducing ABHD10

O=C(NOC[C@H](O)CO)c1ccc(F)c(F)c1Nc1ccc(I)cc1F [PD901]
ERK phosphorylation [1]: blocked ERK phosphorylation in both cell lines
ERK phosphorylation (KRAS mutant NB-4 cells): blocked ERK phosphorylation in both cell lines

CCCCCCCCCC[C@@H]1C(=O)O[C@H]1CCCCS(=O)(=O)CCCN(C)C [Palm M, Palmostatin M]
sensitivity of dynamic palmitoylation of wild type N-Ras [2]: fully preserved
ERK phosphorylation (ABHD17-DKO cells): maintained similar activity
ERK phosphorylation [1]: substantially blocked
ERK phosphorylation (KRAS mutant NB-4 cells): but not in KRAS mutant NB-4 cells
global serine hydrolase selectivity in cells (serine hydrolases): widespread serine hydrolase inhibition
stabilization of the 22 dynamically palmitoylated proteins [3]: most of these proteins were stabilized
